Counter-ions that a name gives are not always drawn. Like-named read-outs stand apart in the source and are kept apart here.
How the values were obtained:
Assay type in all cases: cell-based
[1] = tested on: S. aureus ATCC 25923; assay: MIC, CLSI broth microdilution (Table 1); details: Staphylococcus aureus
[2] = tested on: E. coli ATCC 25922; assay: MIC, CLSI broth microdilution (Table 2); details: Escherichia coli
[3] = tested on: K. pneumoniae ATCC 33495; assay: MIC, CLSI broth microdilution (Table 2); details: Klebsiella pneumoniae
[4] = tested on: S. pneumonia ATCC 49619; assay: MIC, CLSI broth microdilution (Table 1); details: Streptococcus pneumoniae
[5] = tested on: S. aureus BAA-1720 (MRSA, FQ-R); assay: MIC, CLSI broth microdilution (Table 1); details: Staphylococcus aureus; Gram positive; MHB, 37° C., 16-20 hours; read-out: MIC S. aureus BAA-1720 (MRSA, FQ-R)
[6] = tested on: E. faecium ATCC 19434; assay: MIC, CLSI broth microdilution (Table 1); details: Enterococcus faecium
[7] = tested on: P. aeruginosa ATCC 27853; assay: MIC, CLSI broth microdilution (Table 2); details: Pseudomonas aeruginosa
[8] = tested on: S. maltophilia ATCC 17677; assay: MIC, CLSI broth microdilution (Table 2); details: Stenotrophomonas maltophilia
[9] = tested on: A. baumannii ATCC 19606; assay: MIC, CLSI broth microdilution (Table 2); details: Acinetobacter baumannii
[10] = tested on: H. influenzae ATCC 49247; assay: MIC, CLSI broth microdilution (Table 2); details: Haemophilus influenzae
[11] = tested on: E. faecalis ATCC 29212; assay: MIC, CLSI broth microdilution (Table 1); details: Enterococcus faecalis
[12] = tested on: S. aureus ATCC 43300 (MRSA, FQ-S); assay: MIC, CLSI broth microdilution (Table 1); details: Staphylococcus aureus, read-out: MIC S. aureus ATCC 43300 (MRSA, FQ-S)
[13] = ATCC25923, Gram positive, MHB, 37° C., 16-20 hours, read-out: MIC S. aureus ATCC 25923
[14] = ATCC25922, Gram negative, MHB, 37° C., 16-20 hours, read-out: MIC E. coli ATCC 25922
[15] = ATCC33495, Gram negative, MHB, 37° C., 16-20 hours, read-out: MIC K. pneumoniae ATCC 33495
[16] = ATCC49619, Gram positive, MHB, 37° C., 16-20 hours, read-out: MIC S. pneumonia ATCC 49619
[17] = ATCC19434, Gram positive, MHB, 37° C., 16-20 hours, read-out: MIC E. faecium ATCC 19434
[18] = ATCC27853, Gram negative, MHB, 37° C., 16-20 hours, read-out: MIC P. aeruginosa ATCC 27853
[19] = ATCC17677, Gram negative, MHB, 37° C., 16-20 hours, read-out: MIC S. maltophilia ATCC 17677
[20] = ATCC19606, Gram negative, MHB, 37° C., 16-20 hours, read-out: MIC A. baumannii B. ATCC 19606
[21] = ATCC49247, Gram negative, MHB, 37° C., 16-20 hours, read-out: MIC H. influenzae ATCC 49247
[22] = ATCC29212, Gram positive, MHB, 37° C., 16-20 hours, read-out: MIC E. faecalis ATCC 29212
[23] = Gram positive, MHB, 37° C., 16-20 hours
[24] = ATCC25923, read-out: MIC S. aureus ATCC 25923
[25] = ATCC25922, read-out: MIC E. coli ATCC 25922
[26] = ATCC33495, read-out: MIC K. pneumoniae ATCC 33495
[27] = ATCC49619, read-out: MIC S. pneumonia ATCC 49619
[28] = ATCC17677, read-out: MIC S. maltophilia ATCC 17677
[29] = ATCC19606, read-out: MIC A. baumannii B. ATCC 19606
[30] = ATCC49247, read-out: MIC H. influenzae ATCC 49247
[31] = ATCC29212, read-out: MIC E. faecalis ATCC 29212

| Structure (SMILES) | MIC [1, 13] | MIC [2, 14] | MIC [3, 15] | MIC [4, 16] | MIC [5] | MIC [6, 17] | MIC [7, 18] | MIC [8, 19] | MIC [9, 20] | MIC [10, 21] | MIC [11, 22] | MIC [12, 23] | also measured |
| --- | --- | --- | --- | --- | --- | --- | --- | --- | --- | --- | --- | --- | --- |
| Cc1c(-c2cccc(N)c2)c(F)cn2c(=O)c(C(=O)O)cc(C3CC3)c12 [Example 4 K salt, 8-(3-amino-phenyl)-1-cyclopropyl-7-fluoro-9-methyl-4-oxo-4H-quinolizine-3-carboxylic acid] | 0.016 µg/mL | 0.125 µg/mL | 0.25 µg/mL | 0.125 µg/mL | 0.25 µg/mL | 1 µg/mL | 8 µg/mL | 0.25 µg/mL | 0.125 µg/mL | 8 ng/mL | 0.032 µg/mL | 0.016 µg/mL |  |
| Cc1c(-c2ccc(N)cc2)c(F)cn2c(=O)c(C(=O)O)cc(C3CC3)c12 [Example 5 K salt, 8-(4-amino-phenyl)-1-cyclopropyl-7-fluoro-9-methyl-4-oxo-4H-quinolizine-3-carboxylic acid] |  |  |  |  |  |  |  |  |  |  |  |  | MIC [1, 24]: 0.008 µg/mL; MIC [2, 25]: 0.064 µg/mL; MIC [3, 26]: 0.125 to 0.25 µg/mL; MIC [4, 27]: 0.032 µg/mL; MIC ([6]; ATCC19434, read-out: MIC E. faecium ATCC 19434): 0.5 µg/mL; MIC ([7]; ATCC27853, read-out: MIC P. aeruginosa ATCC 27853): 2 µg/mL; MIC [8, 28]: 0.125 µg/mL; MIC [9, 29]: 0.064 µg/mL; MIC [10, 30]: ≤ 4 ng/mL; MIC [11, 31]: 0.016 to 0.032 µg/mL; MIC [12]: 0.008 µg/mL |
| Cc1c(-c2ccc(C(N)=O)cc2)c(F)cn2c(=O)c(C(=O)O)cc(C3CC3)c12 [Example 6 K salt, 8-(4-carbamoyl-phenyl)-1-cyclopropyl-7-fluoro-9-methyl-4-oxo-4H-quinolizine-3-carboxylic acid] |  |  |  |  |  |  |  |  |  |  |  |  | MIC [1, 24]: 0.008 to 0.016 µg/mL; MIC [2, 25]: 0.125 µg/mL; MIC [3, 26]: 0.5 µg/mL; MIC [4, 27]: 0.032 µg/mL; MIC [8, 28]: 0.5 µg/mL; MIC [9, 29]: 0.5 µg/mL; MIC [10, 30]: ≤ 4 ng/mL; MIC [11, 31]: 0.016 µg/mL; MIC [12]: 0.008 µg/mL |
| Cc1c(-c2ccc(N)cc2F)ccn2c(=O)c(C(=O)O)cc(C3CC3)c12 [Example 7 K salt, 8-(4-amino-2-fluoro-phenyl)-1-cyclopropyl-9-methyl-4-oxo-4H-quinolizine-3-carboxylic acid] | 0.008 µg/mL | 0.064 µg/mL | 0.125 to 0.25 µg/mL | 0.032 to 0.064 µg/mL | 0.25 µg/mL | 0.5 µg/mL | 4 µg/mL | 0.25 µg/mL | 0.125 µg/mL | 8 ng/mL | 0.032 µg/mL | 0.008 µg/mL |  |
| Cc1c(-c2cccc(F)c2)ccn2c(=O)c(C(=O)O)cc(C3CC3)c12 [Example 10 K salt, 1-cyclopropyl-8-(3-fluoro-phenyl)-9-methyl-4-oxo-4H-quinolizine-3-carboxylic acid] | 0.008 µg/mL | 0.125 µg/mL | 0.25 µg/mL | 0.125 µg/mL | 0.5 µg/mL | 0.5 µg/mL | 2 µg/mL | 0.25 to 0.5 µg/mL | 0.25 µg/mL | 8 ng/mL | 0.032 µg/mL | 0.008 µg/mL |  |
| Cc1c(-c2ccc(N)c(Cl)c2)ccn2c(=O)c(C(=O)O)cc(C3CC3)c12 [Example 11 K salt, 8-(4-amino-3-chloro-phenyl)-1-cyclopropyl-9-methyl-4-oxo-4H-quinolizine-3-carboxylic acid] | ≤ 0.004 µg/mL | 0.064 µg/mL | 0.125 µg/mL | 0.032 µg/mL | 0.125 µg/mL | 0.25 µg/mL | 2 µg/mL | 0.125 µg/mL | 0.064 µg/mL | ≤ 4 ng/mL | 0.016 µg/mL | ≤ 0.004 µg/mL |  |
| COc1cc(-c2ccn3c(=O)c(C(=O)O)cc(C4CC4)c3c2C)ccc1N [Example 12 K salt, 8-(4-amino-3-methoxy-phenyl)-1-cyclopropyl-9-methyl-4-oxo-4H-quinolizine-3-carboxylic acid] | 0.016 to 0.032 µg/mL | 0.25 µg/mL | 0.5 µg/mL | 0.25 µg/mL | 0.5 to 1 µg/mL | 1 µg/mL | 8 µg/mL | 0.5 µg/mL | 0.25 to 0.5 µg/mL | 32 ng/mL | 0.064 µg/mL | 0.016 µg/mL |  |
| CC(=O)Nc1ccc(-c2ccn3c(=O)c(C(=O)O)cc(C4CC4)c3c2C)cc1 [Example 13 K salt, 8-(4-acetamido-phenyl)-1-cyclopropyl-9-methyl-4-oxo-4H-quinolizine-3-carboxylic acid] | 0.008 to 0.016 µg/mL | 0.125 µg/mL | 0.5 µg/mL | 0.032 µg/mL | 0.25 µg/mL | 0.5 µg/mL | 8 µg/mL | 0.5 µg/mL | 0.5 µg/mL | 16 ng/mL | 0.016 µg/mL | 0.008 µg/mL |  |
| Cc1c(-c2ccc(NS(C)(=O)=O)cc2)ccn2c(=O)c(C(=O)O)cc(C3CC3)c12 [Example 14 K salt, 1-cyclopropyl-9-methyl-8-(4-(methylsulfonamido)-phenyl)-4-oxo-4H-quinolizine-3-carboxylic acid] | 0.016 µg/mL | 0.25 µg/mL | 1 µg/mL | 0.125 µg/mL | 0.5 µg/mL | 8 µg/mL | > 8 µg/mL | 1 µg/mL | 0.5 to 1 µg/mL | 16 ng/mL | 0.064 µg/mL | 0.016 µg/mL |  |
| CNc1ccc(-c2ccn3c(=O)c(C(=O)O)cc(C4CC4)c3c2C)cc1 [Example 15 K salt, 1-cyclopropyl-9-methyl-8-(4-(methylamino)-phenyl)-4-oxo-4H-quinolizine-3-carboxylic acid] | 0.016 µg/mL | 0.125 µg/mL | 1 µg/mL | 0.064 µg/mL | 1 µg/mL | > 8 µg/mL | > 8 µg/mL | 0.5 µg/mL | 0.5 to 1 µg/mL | 16 to 32 ng/mL | 0.032 µg/mL | 0.016 µg/mL |  |
| Cc1c(-c2cccnc2)ccn2c(=O)c(C(=O)O)cc(C3CC3)c12 [Example 17 K salt, 1-cyclopropyl-9-methyl-4-oxo-8-(pyridin-3-yl)-4H-quinolizine-3-carboxylic acid] | 0.016 µg/mL | 0.064 µg/mL | 0.125 µg/mL | 0.125 µg/mL | 1 µg/mL | 1 µg/mL | 2 to 4 µg/mL | 0.25 µg/mL | 0.125 to 0.25 µg/mL | ≤ 4 ng/mL | 0.064 µg/mL | 0.016 µg/mL |  |
| Cc1c(-c2ccc(N)cc2)ccn2c(=O)c(C(=O)O)cc(C3CC3)c12 [Example 18 K salt, 8-(4-amino-phenyl)-1-cyclopropyl-9-methyl-4-oxo-4H-quinolizine-3-carboxylic acid] | 0.008 µg/mL | 0.032 µg/mL | 0.064 to 0.25 µg/mL | 0.064 µg/mL | 0.25 µg/mL | 0.25 µg/mL | 1 µg/mL | 0.125 µg/mL | 0.064 µg/mL | 8 ng/mL | 0.032 µg/mL | 0.008 µg/mL |  |
| Cc1cc(-c2ccn3c(=O)c(C(=O)O)cc(C4CC4)c3c2C)ccc1N [Example 19 K salt, 8-(4-amino-3-methyl-phenyl)-1-cyclopropyl-9-methyl-4-oxo-4H-quinolizine-3-carboxylic acid] | 0.016 µg/mL | 0.064 to 0.125 µg/mL | 0.25 µg/mL | 0.064 to 0.125 µg/mL | 0.25 µg/mL | 1 µg/mL | 2 µg/mL | 0.25 µg/mL | 0.125 to 0.25 µg/mL | 8 ng/mL | 0.032 µg/mL | 0.016 µg/mL |  |
| Cc1c(-c2ccc3[nH]ccc3c2)ccn2c(=O)c(C(=O)O)cc(C3CC3)c12 [Example 22 K salt, 1-cyclopropyl-8-(1H-indol-5-yl)-9-methyl-4-oxo-4H-quinolizine-3-carboxylic acid] | 0.008 µg/mL | 0.125 µg/mL | 0.25 µg/mL | 0.125 µg/mL | 0.5 µg/mL | 4 µg/mL | 4 µg/mL | 0.5 µg/mL | 0.25 µg/mL | 16 ng/mL | 0.032 µg/mL | 0.016 µg/mL |  |
